Measurements from patent US20250147039A1, “Compounds for complexation of rare earth elements and/or s-, p-, d- block metals, their coordination compounds, peptide conjugates, method of their preparation and use thereof” (USTAV ORGANICKE CHEMIE A BIOCHEMIE AV CR V.V.I., priority 2021, published 2025).

Experiments:
Assay type in all cases: physicochemical
[1] = Formation of 1,5-cz-[M(Lig)] from Lig and M^III ions (metal dependent click-zip) (Charts 4, 5); conditions: for conversion to 1,5-cz-[M(Lig)], Bi^III: 4% DMSO in MOPS/NaOH buffer pH 7.0, TD728 in 50% i-PrOH; for conversion to 1,5-cz-[M(Lig)], Ga^III / conversion to 1,5-cz-[M(Lig)], In^III / conversion to 1,5-cz-[M(Lig)], Sc^III / conversion to 1,5-cz-[M(Lig)], Y^III: MOPS/NaOH buffer pH 7.0; for conversion to 1,5-cz-[M(Lig)], Sc^III / conversion to 1,5-cz-[M(Lig)], Y^III: TD728, TD827 in 50% i-PrOH; for conversion to 1,5-cz-[M(Lig)], Y^III: TD714 sum of two diastereoisomers
[2] = Formation of 1,5-cz-[M(Lig)] from Lig and M^II ions (metal dependent click-zip) (Charts 6, 7); conditions: MOPS/NaOH buffer pH 7.0; for conversion to 1,5-cz-[M(Lig)], Ca^II / conversion to 1,5-cz-[M(Lig)], Cd^II / conversion to 1,5-cz-[M(Lig)], Pb^II: TD728 in 50% i-PrOH
[3] = Formation of 1,5-cz-[Lu(Lig)] from Lig (metal dependent click-zip) with various absolute concentrations (Chart 12)
[4] = pH dependent formation of 1,5- and 1,4-cz-Lig isomers from Lig (pH dependent click-zip) (Chart 13)
[5] = A: 1 hour at 80° C., 0.1M HClO4 (pH ~1)
[6] = A: 1 hour at 80° C., 1.0M HClO4 (pH ~0)
[7] = A: 1 hour at 80° C., pH 2.2, 50 mM aq. buffer
[8] = A: 1 hour at 80° C., pH 3.0, 50 mM aq. buffer
[9] = A: 1 hour at 80° C., pH 3.8, 50 mM aq. buffer
[10] = A: 1 hour at 80° C., pH 4.6, 50 mM aq. buffer
[11] = A: 1 hour at 80° C., pH 5.4, 50 mM aq. buffer
[12] = A: 1 hour at 80° C., pH 6.2, 50 mM aq. buffer
[13] = A: 1 hour at 80° C., pH 7.0, 50 mM aq. buffer
[14] = A: 1 hour at 80° C., pH 8.6, 50 mM aq. buffer
[15] = A: 1 hour at 80° C., pH 9.4, 50 mM aq. buffer
[16] = A: 1 hour at 80° C., pH 10.2, 50 mM aq. buffer
[17] = B: 1 day at 80° C., 0.1M HClO4 (pH ~1)
[18] = B: 1 day at 80° C., 1.0M HClO4 (pH ~0)

## C#Cc1cccc(CN2CCN(CC(=O)O)CCN(Cc3cc(-c4ccccc4)cc(CN=[N+]=[N-])n3)CCN(CC(=O)O)CC2)n1 [TD647]
[1]; 1 week at 80° C.
  conversion to 1,5-cz-[M(Lig)], Bi^III: 73%
  conversion to 1,5-cz-[M(Lig)], Ga^III: 0%
  conversion to 1,5-cz-[M(Lig)], In^III: 8%
  conversion to 1,5-cz-[M(Lig)], Sc^III: 35%
  conversion to 1,5-cz-[M(Lig)], Y^III: 93%
[1]; 1 hour at 80° C.
  conversion to 1,5-cz-[M(Lig)], Bi^III: 29%
  conversion to 1,5-cz-[M(Lig)], Ga^III: 0%
  conversion to 1,5-cz-[M(Lig)], In^III: 0%
  conversion to 1,5-cz-[M(Lig)], Sc^III: 7%
  conversion to 1,5-cz-[M(Lig)], Y^III: 20%
[2]; 1 week at 80° C.
  conversion to 1,5-cz-[M(Lig)], Ba^II: 0%
  conversion to 1,5-cz-[M(Lig)], Ni^II: 0%
  conversion to 1,5-cz-[M(Lig)], Sr^II: 0%
  conversion to 1,5-cz-[M(Lig)], Zn^II: 0%
  conversion to 1,5-cz-[M(Lig)], Ca^II: 87%
  conversion to 1,5-cz-[M(Lig)], Cd^II: 86%
  conversion to 1,5-cz-[M(Lig)], Pb^II: 54%
[2]; 1 hour at 80° C.
  conversion to 1,5-cz-[M(Lig)], Ba^II: 0%
  conversion to 1,5-cz-[M(Lig)], Ni^II: 0%
  conversion to 1,5-cz-[M(Lig)], Sr^II: 0%
  conversion to 1,5-cz-[M(Lig)], Zn^II: 0%
  conversion to 1,5-cz-[M(Lig)], Ca^II: 16%
  conversion to 1,5-cz-[M(Lig)], Pb^II: 2%
[2]; 1 hour at 80° C., TD714 sum of two diastereoisomers
  conversion to 1,5-cz-[M(Lig)], Cd^II: 64%
[3]; A: 1 hour at 80° C., Lig 5.0 × 10^0 mM, Lu^III 7.5 × 10^0 mM
  conversion to 1,5-cz-[Lu(Lig)]: 74%
[3]; A: 1 hour at 80° C., Lig 5.0 × 10^1 mM, Lu^III 7.5 × 10^1 mM
  conversion to 1,5-cz-[Lu(Lig)]: 71%
[3]; A: 1 hour at 80° C., Lig 5.0 × 10^−1 mM, Lu^III 7.5 × 10^−1 mM
  conversion to 1,5-cz-[Lu(Lig)]: 70%
[3]; A: 1 hour at 80° C., Lig 5.0 × 10^−2 mM, Lu^III 7.5 × 10^−2 mM
  conversion to 1,5-cz-[Lu(Lig)]: 60%
[3]; A: 1 hour at 80° C., Lig 5.0 × 10^−3 mM, Lu^III 7.5 × 10^−3 mM
  conversion to 1,5-cz-[Lu(Lig)]: 15%
[3]; B: 1 day at 80° C., Lig 5.0 × 10^0 mM, Lu^III 7.5 × 10^0 mM
  conversion to 1,5-cz-[Lu(Lig)]: 96%
[3]; B: 1 day at 80° C., Lig 5.0 × 10^1 mM, Lu^III 7.5 × 10^1 mM
  conversion to 1,5-cz-[Lu(Lig)]: 84%
[3]; B: 1 day at 80° C., Lig 5.0 × 10^−1 mM, Lu^III 7.5 × 10^−1 mM
  conversion to 1,5-cz-[Lu(Lig)]: 97%
[3]; B: 1 day at 80° C., Lig 5.0 × 10^−2 mM, Lu^III 7.5 × 10^−2 mM
  conversion to 1,5-cz-[Lu(Lig)]: 96%
[3]; B: 1 day at 80° C., Lig 5.0 × 10^−3 mM, Lu^III 7.5 × 10^−3 mM
  conversion to 1,5-cz-[Lu(Lig)]: 59%
[3]; C: 1 week at 80° C., Lig 5.0 × 10^0 mM, Lu^III 7.5 × 10^0 mM
  conversion to 1,5-cz-[Lu(Lig)]: 96%
[3]; C: 1 week at 80° C., Lig 5.0 × 10^1 mM, Lu^III 7.5 × 10^1 mM
  conversion to 1,5-cz-[Lu(Lig)]: 86%
[3]; C: 1 week at 80° C., Lig 5.0 × 10^−1 mM, Lu^III 7.5 × 10^−1 mM
  conversion to 1,5-cz-[Lu(Lig)]: 97%
[3]; C: 1 week at 80° C., Lig 5.0 × 10^−2 mM, Lu^III 7.5 × 10^−2 mM
  conversion to 1,5-cz-[Lu(Lig)]: 96%
[3]; C: 1 week at 80° C., Lig 5.0 × 10^−3 mM, Lu^III 7.5 × 10^−3 mM
  conversion to 1,5-cz-[Lu(Lig)]: 57%
[4]; [5]
  conversion to 1,4-cz-Lig isomer: 3%
  conversion to 1,5-cz-Lig isomer: 44%
[4]; [6]
  conversion to 1,4-cz-Lig isomer: 2%
  conversion to 1,5-cz-Lig isomer: 9%
[4]; [7]
  conversion to 1,4-cz-Lig isomer: 2%
  conversion to 1,5-cz-Lig isomer: 17%
[4]; [8]
  conversion to 1,4-cz-Lig isomer: 1%
  conversion to 1,5-cz-Lig isomer: 6%
[4]; [9]
  conversion to 1,4-cz-Lig isomer: 1%
  conversion to 1,5-cz-Lig isomer: 1%
[4]; [10]
  conversion to 1,4-cz-Lig isomer: 1%
  conversion to 1,5-cz-Lig isomer: 1%
[4]; [11]
  conversion to 1,4-cz-Lig isomer: 1%
  conversion to 1,5-cz-Lig isomer: 1%
[4]; [12]
  conversion to 1,4-cz-Lig isomer: 1%
  conversion to 1,5-cz-Lig isomer: 1%
[4]; [13]
  conversion to 1,4-cz-Lig isomer: 2%
  conversion to 1,5-cz-Lig isomer: 1%
[4]; [14]
  conversion to 1,4-cz-Lig isomer: 3%
  conversion to 1,5-cz-Lig isomer: 2%
[4]; [15]
  conversion to 1,4-cz-Lig isomer: 3%
  conversion to 1,5-cz-Lig isomer: 8%
[4]; [16]
  conversion to 1,4-cz-Lig isomer: 2%
  conversion to 1,5-cz-Lig isomer: 17%
[4]; [17]
  conversion to 1,4-cz-Lig isomer: 5%
  conversion to 1,5-cz-Lig isomer: 91%
[4]; [18]
  conversion to 1,4-cz-Lig isomer: 8%
  conversion to 1,5-cz-Lig isomer: 72%
